# Reference: patent publication US20260266848A1, “COMPOSITIONS AND METHODS FOR DIAGNOSING AND TREATING DYSTONIA” (Duke University, priority 2023, published 2026)
# Test system: DYT-TOR1A MEF EVs
# Assay: Quantitative LC-MS/MS proteomics of EVs from drug-treated DYT-TOR1A MEF cultures (ritonavir, salubrinal)
# Format: cell-based, mouse
compound,measurement,setting,value
O=C(/C=C/c1ccccc1)NC(NC(=S)Nc1cccc2cccnc12)C(Cl)(Cl)Cl (stereo not drawn) [salubrinal],Acaa1a (ACAA1) EV abundance Cohen's d,"DYT + Sal/DYT, 20 μM, 24 h",−0.1738
same,Ano6 (ANO6) EV abundance Cohen's d,"DYT + Sal/DYT, 20 μM, 24 h",0.1593
same,Ap1b1 (AP1B1) EV abundance Cohen's d,"DYT + Sal/DYT, 20 μM, 24 h",−0.5479
same,Ar18b (ARL8B) EV abundance Cohen's d,"DYT + Sal/DYT, 20 μM, 24 h",−0.5773
same,Bzw2 (BZW2) EV abundance Cohen's d,"DYT + Sal/DYT, 20 μM, 24 h",0.2815
same,Cryab (CRYAB) EV abundance Cohen's d,"DYT + Sal/DYT, 20 μM, 24 h",1.101
same,DIst (DLST) EV abundance Cohen's d,"DYT + Sal/DYT, 20 μM, 24 h",−0.973
same,Ehd4 (EHD4) EV abundance Cohen's d,"DYT + Sal/DYT, 20 μM, 24 h",−0.4717
same,Flna (FLNA) EV abundance Cohen's d,"DYT + Sal/DYT, 20 μM, 24 h",0.4828
same,Fscn1 (FSCN1) EV abundance Cohen's d,"DYT + Sal/DYT, 20 μM, 24 h",0.7138
same,Gart (GART) EV abundance Cohen's d,"DYT + Sal/DYT, 20 μM, 24 h",0.6261
same,Hist1h1b (H1-5) EV abundance Cohen's d,"DYT + Sal/DYT, 20 μM, 24 h",0.4792
same,Hnrnpc (HNRNPC) EV abundance Cohen's d,"DYT + Sal/DYT, 20 μM, 24 h",−0.5111
same,Ipo9 (IPO9) EV abundance Cohen's d,"DYT + Sal/DYT, 20 μM, 24 h",0.1652
same,Jam3 (JAM3) EV abundance Cohen's d,"DYT + Sal/DYT, 20 μM, 24 h",−0.5387
same,Lipg (LIPG) EV abundance Cohen's d,"DYT + Sal/DYT, 20 μM, 24 h",0.6163
same,Lrrc59 (LRRC59) EV abundance Cohen's d,"DYT + Sal/DYT, 20 μM, 24 h",0.4615
same,Mapk3 (MAPK3) EV abundance Cohen's d,"DYT + Sal/DYT, 20 μM, 24 h",−0.3187
same,Mars (MARS1) EV abundance Cohen's d,"DYT + Sal/DYT, 20 μM, 24 h",−0.2456
same,Mrc2 (MRC2) EV abundance Cohen's d,"DYT + Sal/DYT, 20 μM, 24 h",0.3301
same,Myh9 (MYH9) EV abundance Cohen's d,"DYT + Sal/DYT, 20 μM, 24 h",−0.2884
same,Ndnf (NDNF) EV abundance Cohen's d,"DYT + Sal/DYT, 20 μM, 24 h",−0.4227
same,Pcmt1 (PCMT1) EV abundance Cohen's d,"DYT + Sal/DYT, 20 μM, 24 h",−0.2746
same,Pi4ka (PI4KA) EV abundance Cohen's d,"DYT + Sal/DYT, 20 μM, 24 h",0.7656
same,Pitpnb (PITPNB) EV abundance Cohen's d,"DYT + Sal/DYT, 20 μM, 24 h",0.6644
same,Prpsap2 (PRPSAP2) EV abundance Cohen's d,"DYT + Sal/DYT, 20 μM, 24 h",−1.257
same,Psmc5 (PSMC5) EV abundance Cohen's d,"DYT + Sal/DYT, 20 μM, 24 h",1.22
same,Psmd12 (PSMD12) EV abundance Cohen's d,"DYT + Sal/DYT, 20 μM, 24 h",1.234
same,Psme4 (PSME4) EV abundance Cohen's d,"DYT + Sal/DYT, 20 μM, 24 h",−0.3917
same,Ptma (PTMA) EV abundance Cohen's d,"DYT + Sal/DYT, 20 μM, 24 h",0.9729
same,Rap2b (RAP2B) EV abundance Cohen's d,"DYT + Sal/DYT, 20 μM, 24 h",−0.249
same,Rbm3 (RBM3) EV abundance Cohen's d,"DYT + Sal/DYT, 20 μM, 24 h",0.2607
same,Rhoa (RHOA) EV abundance Cohen's d,"DYT + Sal/DYT, 20 μM, 24 h",−0.6572
same,Rpl10 (RPL10) EV abundance Cohen's d,"DYT + Sal/DYT, 20 μM, 24 h",−0.3597
same,Rpl13a (RPL13A) EV abundance Cohen's d,"DYT + Sal/DYT, 20 μM, 24 h",−0.4797
same,Rps13 (RPS13) EV abundance Cohen's d,"DYT + Sal/DYT, 20 μM, 24 h",−0.1409
same,Sec31a (SEC31A) EV abundance Cohen's d,"DYT + Sal/DYT, 20 μM, 24 h",−0.2355
same,Slc2a1 (SLC2A1) EV abundance Cohen's d,"DYT + Sal/DYT, 20 μM, 24 h",−0.3172
same,Stom (STOM) EV abundance Cohen's d,"DYT + Sal/DYT, 20 μM, 24 h",−0.4048
same,Tardbp (TARDBP) EV abundance Cohen's d,"DYT + Sal/DYT, 20 μM, 24 h",0.4522
same,Tgfb2 (TGFB2) EV abundance Cohen's d,"DYT + Sal/DYT, 20 μM, 24 h",−0.3293
same,Tln1 (TLN1) EV abundance Cohen's d,"DYT + Sal/DYT, 20 μM, 24 h",0.5665
same,Tln2 (TLN2) EV abundance Cohen's d,"DYT + Sal/DYT, 20 μM, 24 h",0.5488
same,Tubb1 (TUBB1) EV abundance Cohen's d,"DYT + Sal/DYT, 20 μM, 24 h",0.246
same,Usp7 (USP7) EV abundance Cohen's d,"DYT + Sal/DYT, 20 μM, 24 h",1.229
same,Wdr26 (WDR26) EV abundance Cohen's d,"DYT + Sal/DYT, 20 μM, 24 h",−0.1895
same,Zyx (ZYX) EV abundance Cohen's d,"DYT + Sal/DYT, 20 μM, 24 h",−0.5814
same,Pearson r between ritonavir and salubrinal effects on putative DYT-TOR1A biomarker proteins,"DYT-TOR1A MEF EVs, 20 μM each, 24 h",0.47
same,Acaa1a (ACAA1) EV abundance Cohen's d,"DYT/DYT + Sal, 20 μM, 24 h",−0.1738
same,Ano6 (ANO6) EV abundance Cohen's d,"DYT/DYT + Sal, 20 μM, 24 h",0.1593
same,Ap1b1 (AP1B1) EV abundance Cohen's d,"DYT/DYT + Sal, 20 μM, 24 h",−0.5479
same,Arl8b (ARL8B) EV abundance Cohen's d,"DYT/DYT + Sal, 20 μM, 24 h",−0.5773
same,Bzw2 (BZW2) EV abundance Cohen's d,"DYT/DYT + Sal, 20 μM, 24 h",0.2815
same,Cryab (CRYAB) EV abundance Cohen's d,"DYT/DYT + Sal, 20 μM, 24 h",1.101
same,DIst (DLST) EV abundance Cohen's d,"DYT/DYT + Sal, 20 μM, 24 h",−0.973
same,Ehd4 (EHD4) EV abundance Cohen's d,"DYT/DYT + Sal, 20 μM, 24 h",−0.4717
same,Flna (FLNA) EV abundance Cohen's d,"DYT/DYT + Sal, 20 μM, 24 h",0.4828
same,Fscn1 (FSCN1) EV abundance Cohen's d,"DYT/DYT + Sal, 20 μM, 24 h",0.7138
same,Gart (GART) EV abundance Cohen's d,"DYT/DYT + Sal, 20 μM, 24 h",0.6261
same,Hist1h1b (H1-5) EV abundance Cohen's d,"DYT/DYT + Sal, 20 μM, 24 h",0.4792
same,Hnrnpc (HNRNPC) EV abundance Cohen's d,"DYT/DYT + Sal, 20 μM, 24 h",−0.5111
same,Ipo9 (IPO9) EV abundance Cohen's d,"DYT/DYT + Sal, 20 μM, 24 h",0.1652
same,Jam3 (JAM3) EV abundance Cohen's d,"DYT/DYT + Sal, 20 μM, 24 h",−0.5387
same,Lipg (LIPG) EV abundance Cohen's d,"DYT/DYT + Sal, 20 μM, 24 h",0.6163
same,Lrrc59 (LRRC59) EV abundance Cohen's d,"DYT/DYT + Sal, 20 μM, 24 h",0.4615
same,Mapk3 (MAPK3) EV abundance Cohen's d,"DYT/DYT + Sal, 20 μM, 24 h",−0.3187
same,Mars (MARS1) EV abundance Cohen's d,"DYT/DYT + Sal, 20 μM, 24 h",−0.2456
same,Mrc2 (MRC2) EV abundance Cohen's d,"DYT/DYT + Sal, 20 μM, 24 h",0.3301
same,Myh9 (MYH9) EV abundance Cohen's d,"DYT/DYT + Sal, 20 μM, 24 h",−0.2884
same,Ndnf (NDNF) EV abundance Cohen's d,"DYT/DYT + Sal, 20 μM, 24 h",−0.4227
same,Pcmt1 (PCMT1) EV abundance Cohen's d,"DYT/DYT + Sal, 20 μM, 24 h",−0.2746
same,Pi4ka (PI4KA) EV abundance Cohen's d,"DYT/DYT + Sal, 20 μM, 24 h",0.7656
same,Pitpnb (PITPNB) EV abundance Cohen's d,"DYT/DYT + Sal, 20 μM, 24 h",0.6644
same,Prpsap2 (PRPSAP2) EV abundance Cohen's d,"DYT/DYT + Sal, 20 μM, 24 h",−1.257
same,Psmc5 (PSMC5) EV abundance Cohen's d,"DYT/DYT + Sal, 20 μM, 24 h",1.22
same,Psmd12 (PSMD12) EV abundance Cohen's d,"DYT/DYT + Sal, 20 μM, 24 h",1.234
same,Psme4 (PSME4) EV abundance Cohen's d,"DYT/DYT + Sal, 20 μM, 24 h",−0.3917
same,Ptma (PTMA) EV abundance Cohen's d,"DYT/DYT + Sal, 20 μM, 24 h",0.9729
same,Rap2b (RAP2B) EV abundance Cohen's d,"DYT/DYT + Sal, 20 μM, 24 h",−0.249
same,Rbm3 (RBM3) EV abundance Cohen's d,"DYT/DYT + Sal, 20 μM, 24 h",0.2607
same,Rhoa (RHOA) EV abundance Cohen's d,"DYT/DYT + Sal, 20 μM, 24 h",−0.6572
same,Rpl10 (RPL10) EV abundance Cohen's d,"DYT/DYT + Sal, 20 μM, 24 h",−0.3597
same,Rpl13a (RPL13A) EV abundance Cohen's d,"DYT/DYT + Sal, 20 μM, 24 h",−0.4797
same,Rps13 (RPS13) EV abundance Cohen's d,"DYT/DYT + Sal, 20 μM, 24 h",−0.1409
same,Sec31a (SEC31A) EV abundance Cohen's d,"DYT/DYT + Sal, 20 μM, 24 h",−0.2355
same,Slc2a1 (SLC2A1) EV abundance Cohen's d,"DYT/DYT + Sal, 20 μM, 24 h",−0.3172
same,Stom (STOM) EV abundance Cohen's d,"DYT/DYT + Sal, 20 μM, 24 h",−0.4048
same,Tardbp (TARDBP) EV abundance Cohen's d,"DYT/DYT + Sal, 20 μM, 24 h",0.4522
same,Tgfb2 (TGFB2) EV abundance Cohen's d,"DYT/DYT + Sal, 20 μM, 24 h",−0.3293
same,Tln1 (TLN1) EV abundance Cohen's d,"DYT/DYT + Sal, 20 μM, 24 h",0.5665
same,Tln2 (TLN2) EV abundance Cohen's d,"DYT/DYT + Sal, 20 μM, 24 h",0.5488
same,Tubb1 (TUBB1) EV abundance Cohen's d,"DYT/DYT + Sal, 20 μM, 24 h",0.246
same,Usp7 (USP7) EV abundance Cohen's d,"DYT/DYT + Sal, 20 μM, 24 h",1.229
same,Wdr26 (WDR26) EV abundance Cohen's d,"DYT/DYT + Sal, 20 μM, 24 h",−0.1895
same,Zyx (ZYX) EV abundance Cohen's d,"DYT/DYT + Sal, 20 μM, 24 h",−0.5814
same,proteins reduced in both mouse and human EVs whose abundance is modulated toward correction in DYT1 cells (and toward DYT1-like by ISRIB in WT cells),salubrinal,4 of the 7
